Counter-ions that a name gives are not always drawn.
Key:
Type in all cases: cell-based
fungi of Table 4 = experiment: Antifungal test when a serum is added (summary); conditions: 10% and 30% by volume horse serum
Procedure: Minimal inhibitory concentration (M.I.C.) was determined by preparing the agar plate medium in the same manner of the preceding pharmacological test 1, except for the addition of the horse serum. The concentration of the component in the medium was finally corrected, so that it may amount to the concentration of the component when the horse serum was not added.

Trichomonas vaginalis = experiment: Anti-trichomonal Test; conditions: 72 h, ASAMI medium containing 20% horse serum, 37° C., 3 days, read-out: minimal inhibitory concentration
Procedure: The compound under test was dissolved in aseptic water, and filtered aseptically to prepare a two fold dilution series. Each 2.6 ml ASAMI medium containing 20% of the horse serum were respectively taken into small test tubes. Onto the medium, there were incubated 0.3 ml of the two fold dilution solution of the compounds and 0.1 ml of the suspension of the ASAMI medium of Trichomonas vaginalis which was cultured at 37° C. for 3 days respectively. Incubation was carried out at 37° C. for 3 days to determine the minimal inhibitory concentration.

[1] = system: yeast-like fungi such as Candida, Cryptococcus; experiment: Antifungal Test (summary)
Procedure: (§1) Respective agar plates were prepared by dissolving compounds under test in aseptic water to make a two fold dilution series, taking each 1 milliliter of said diluted solutions and 9 ml of Sabouraud medium into a petri dish, and sufficiently admixing the same.
(§2) On the other hand, an inoculum was prepared by cultivating an examined fungus (microorganism) on the Sabouraud slant medium and suspending two loopful of the incubated fungus in 10 ml of sterilized physiological saline water.
(§3) One loopful of the inoculum was streaked on the above-mentioned agar plate. After the agar plate was incubated at a defined temperature for a predetermined period of time to determine the minimal inhibitory concentration (M.I.C.).

[2] = system: Salmonella typhimurium 1406; experiment: Antibacterial Test (agar dilution M.I.C.); conditions: Salmonella enterica, Table 5, 37° C., 18 hours
Procedure: (§4) A compound under test was dissolved in aseptic water to prepare a two fold dilution series. Each 1 milliliter of the solution was taken in a petri dish. Nine ml of infusion agar medium (Difco) was added to the solution, thereby preparing the agar plate for test. A pre-culture of each test strain in Tripticase soy broth medium (BBL) at 37° C. for 18 hours was streaked on the above-mentioned agar plate, and the said agar plate was incubated at 37° C. for 18 hours to determine the minimal inhibitory concentration (M.I.C.).

[3] = system: Staphylococcus aureus 13-6; experiment: Antibacterial Test (agar dilution M.I.C.); conditions: 136, Table 5, 37° C., 18 hours
Procedure: as §4

[4] = system: Escherichia coli NIHJ JC-1; experiment: Antibacterial Test (agar dilution M.I.C.); conditions: NIHJJC1, Table 5, 37° C., 18 hours
Procedure: as §4

[5] = system: Klebsiella pneumonial NO-1; experiment: Antibacterial Test (agar dilution M.I.C.); conditions: NO1, Table 5, 37° C., 18 hours
Procedure: as §4

[6] = system: Streptococcus hemolyticus Y-73-5; experiment: Antibacterial Test (agar dilution M.I.C.); conditions: Streptococcus pyogenes, Y735; Table 5; 37° C., 18 hours
Procedure: as §4

Proteus mirabilis OM-1 = experiment: Antibacterial Test (agar dilution M.I.C.); conditions: OM1, Table 5, 37° C., 18 hours
Procedure: as §4

Escherichia coli E-15 = experiment: Antibacterial Test (agar dilution M.I.C.); conditions: E15, Table 5, 37° C., 18 hours
Procedure: as §4

[7] = system: Staphylococcus aureus 209-P JO-1; experiment: Antibacterial Test (agar dilution M.I.C.); conditions: Table 5, 37° C., 18 hours
Procedure: as §4

Pseudomonas aeruginosa = experiment: Antibacterial Test (agar dilution M.I.C.); conditions: Table 5, 37° C., 18 hours
Procedure: as §4

Candida albicans = experiment: Anti-candida activity (summary)
Procedure: as §1, §2, §3
Incubation time: 3 days (72 hours)

[8] = system: Staphylococcus aureus 209-P, Staphylococcus aureus 13-6 and Streptococcus pyogenes; experiment: Antibacterial Test (summary); conditions: 37° C., 18 hours; read-out: minimal inhibitory concentration
Procedure: as §4

[9] = system: gram-negative bacteria such as Escherichia coli NIHJ and Escherichia coli E-15; experiment: Antibacterial Test (summary); conditions: 18 h, 37° C., read-out: minimal inhibitory concentration
Procedure: as §4

[10] = system: Candida albicans IFM 4080; experiment: Antifungal Test (agar dilution M.I.C.); conditions: for MIC: Candida albicans
Procedure: as §1, §2, §3
(§5) Incubation temperature:
Incubation time: 3 days (72 hours) and
activity incubation conditions:
Incubation time 3 days (72 hours)
Incubation time 7 days (168 hours)
Incubation time 2 days (48 hours)

[11] = system: Candida guilliermondii AHU 3654; experiment: Antifungal Test (agar dilution M.I.C.); conditions: Meyerozyma guilliermondii, Table 1, 27° C.
Procedure: as §1, §2, §3, §5
Incubation time: 3 days (72 hours) and […]

In the case of N=C(N)c1cccc(OCC2CCC(COc3cccc(C(=N)N)c3)CC2)c1 (stereo not shown) [Compound A, 1,4-Bis-(m,m'-amidinophenoxymethyl)-cyclohexane-dihydrochloride], the “antifungal activity with serum compared with no serum” value (fungi of Table 4) is reported as “nearly same as that when the horse serum was not added”, the “difference of antifungal activity with vs without horse serum” value (fungi of Table 4) is reported as 1 - 2 dilution step(s) and the MIC (Trichomonas vaginalis) is reported as 200 µg/mL. For the same compound, the antifungal activity [1] was “excellent antifungal activity”, the “influence of incubation temperature on antifungal activity” value ([1]; 27° C. and 37° C.) was “not influenced by the incubation temperature” and the MIC [2] was 200 µg/mL. For the same compound, the MIC [3] was 6.25 µg/mL, the MIC [4] was 100 µg/mL and the MIC [5] was 200 µg/mL. The MIC [6] was 6.25 µg/mL, the MIC (Proteus mirabilis OM-1) was > 200 µg/mL and the MIC (Escherichia coli E-15) was 200 µg/mL. For the same compound, the MIC [7] was 3.13 µg/mL, the MIC (Pseudomonas aeruginosa) was > 200 µg/mL and the “anti-candida activity compared with nystatin” value (Candida albicans) was “more excellent anti-candida activity than that of the nystatin”. For the same compound, the MIC [8] was 3.13 to 6.25 µg/mL, the MIC [9] was 100 to 200 µg/mL and the MIC ([10]; IFM4080, 48 h, Table 3, 37° C., 2 days) was 0.8 µg/mL. The MIC ([10]; IFM4080, 72 h, Table 3, 27° C., 3 days) was 3.13 µg/mL, the MIC ([10]; IFM4080, 168 h, Table 3, 27° C., 7 days) was 6.25 µg/mL and the M.I.C. ([10]; Table 1, 27° C., 3 days incubation) was 3.13 µg/mL. For the same compound, the M.I.C. ([10]; Table 1, 27° C., 7 days incubation) was 6.25 µg/mL, the M.I.C. ([10]; Table 3, 37° C., 3 days) was 3.13 µg/mL and the MIC ([11]; AHU3654, 72 h, 3 days incubation) was 25 µg/mL. The MIC ([11]; AHU3654, 168 h, 7 days incubation) was 25 µg/mL.
